The source of these data is patent publication US20210269451A1, “PYRIDINYL HETEROCYCLYL COMPOUNDS FOR THE TREATMENT OF AUTOIMMUNE DISEASE” (Hoffmann-La Roche Inc., priority 2018, published 2021).

Where only a bound is given, the exact number is not on record here.

This assay has as its target T1, human TLR8 (Homo sapiens, UniProt Q9NR97).
T1 construct: host or cells: HEK293-Blue-hTLR-8 (HEK293)
T1 sequence (Q9NR97 27-1041): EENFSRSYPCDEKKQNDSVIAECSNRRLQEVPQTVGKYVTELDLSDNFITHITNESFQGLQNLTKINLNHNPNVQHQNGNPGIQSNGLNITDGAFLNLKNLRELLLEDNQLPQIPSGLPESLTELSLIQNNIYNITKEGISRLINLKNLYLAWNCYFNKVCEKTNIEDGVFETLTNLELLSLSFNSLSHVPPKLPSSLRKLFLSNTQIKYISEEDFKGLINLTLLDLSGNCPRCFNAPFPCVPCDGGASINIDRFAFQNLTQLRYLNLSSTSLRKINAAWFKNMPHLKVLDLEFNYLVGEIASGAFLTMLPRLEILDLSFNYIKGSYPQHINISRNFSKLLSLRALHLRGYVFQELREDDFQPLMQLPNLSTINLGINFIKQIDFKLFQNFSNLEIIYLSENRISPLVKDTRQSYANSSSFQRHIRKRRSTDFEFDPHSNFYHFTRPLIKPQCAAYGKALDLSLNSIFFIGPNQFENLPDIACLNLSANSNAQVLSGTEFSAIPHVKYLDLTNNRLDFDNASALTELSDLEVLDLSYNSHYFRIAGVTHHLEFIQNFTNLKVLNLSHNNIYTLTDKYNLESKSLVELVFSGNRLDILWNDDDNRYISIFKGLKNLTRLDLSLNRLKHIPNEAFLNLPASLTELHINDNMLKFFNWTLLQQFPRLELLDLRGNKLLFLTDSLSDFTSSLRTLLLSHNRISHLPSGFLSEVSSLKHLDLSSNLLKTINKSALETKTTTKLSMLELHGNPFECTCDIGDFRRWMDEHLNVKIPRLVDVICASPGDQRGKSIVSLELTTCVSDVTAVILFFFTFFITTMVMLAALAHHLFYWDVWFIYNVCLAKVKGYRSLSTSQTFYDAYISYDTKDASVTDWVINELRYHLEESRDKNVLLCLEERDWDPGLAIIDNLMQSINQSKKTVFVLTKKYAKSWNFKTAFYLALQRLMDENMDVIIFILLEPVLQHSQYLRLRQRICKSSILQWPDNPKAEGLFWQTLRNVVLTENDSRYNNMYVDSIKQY
The assay is described as follows: HEK293-Blue-hTLR-8 cells assay. The note with it: HEK293-Blue-hTLR8 cells, R848 stimulation, 20 hrs, SEAP reporter; read-out: HEK/hTLR8 IC50. Format: cell-based. The procedure: The following tests were carried out in order to determine the activity of the compounds of formula (I) and (Ia) in HEK293-Blue-hTLR-7/8/9 cells assay.
HEK293-Blue-hTLR-8 cells assay:
A stable HEK293-Blue-hTLR-8 cell line was purchased from InvivoGen (Cat. #: hkb-htlr8, San Diego, Calif., USA). These cells were originally designed for studying the stimulation of human TLR8 by monitoring the activation of NE-κB. A SEAP (secreted embryonic alkaline phosphatase) reporter gene was placed under the control of the IFN-β minimal promoter fused to five NE-κB and AP-1-binding sites. The SEAP was induced by activating NE-κB and AP-1 via stimulating HEK-Blue hTLR8 cells with TLR8 ligands. Therefore the reporter expression was declined by TLR8 antagonist under the stimulation of a ligand, such as R848, for incubation of 20 hrs. The cell culture supernatant SEAP reporter activity was determined using QUANTI-Blue™ kit (Cat. #: rep-qbl, Invivogen, San Diego, Ca, USA) at a wavelength of 640 nm, a detection medium that turns purple or blue in the presence of alkaline phosphatase.
HEK293-Blue-hTLR8 cells were incubated at a density of 250,000-450,000 cells/mL in a volume of 170 μL in a 96-well plate in Dulbecco's Modified Eagle's medium (DMEM) containing 4.5 g/L glucose, 50 U/mL penicillin, […], […], 2 mM L-glutamine, 10% (v/v) heat-inactivated fetal bovine serum with addition of 20 μL test compound in a serial dilution in the presence of final DMSO at 1% and 10 μL of 60 uM R848 in above DMEM, perform incubation under 37° C. in a CO2 incubator for 20 hrs. Then 20 μL of the supernatant from each well was incubated with 180 μL Quanti-blue substrate solution at 37° C. for 2 hrs and the absorbance was read at 620˜655 nm using a spectrophotometer. The signalling pathway that TLR8 activation leads to downstream NE-κB activation has been widely accepted, and therefore similar reporter assay was modified for evaluating TLR8 antagonist.

Consider `Cc1cc(N2CCOC3CN(CC4CN(c5ccc(C#N)c6ncccc56)CC(C)O4)CC32)cc(C)n1` (single isomer, unassigned) [Example 17A], for which the IC50 is below 3 nM.

For the compound `Cc1cc(N2CCOC3CN(CC4CN(c5ccc(C#N)c6ncccc56)CC(C)O4)CC32)cc(C)n1` (single isomer, unassigned) [Example 17B], the IC50 stood at 3 nM.

For `Cc1cc(N2CC3(CN(C[C@H]4CN(c5ccc(C#N)c6ncccc56)C[C@@H](C)O4)C3)C2)cc(CO)n1` [Example 1, 5-[(2S,6R)-2-[[2-[2-(hydroxymethyl)-6-methyl-4-pyridyl]-2,6-diazaspiro[3.3]heptan-6-yl]methyl]-6-methyl-morpholin-4-yl]quinoline-8-carbonitrile], the IC50 was determined as 81 nM.

Consider `C[C@@H]1CN(c2ccc(C#N)c3ncccc23)C[C@H](CN2CC3(C2)CN(c2ccnc(C4CC4)c2)CCO3)O1` [Example 3, 5-[(2S,6R)-2-[[8-(2-cyclopropyl-4-pyridyl)-5-oxa-2,8-diazaspiro[3.5]nonan-2-yl]methyl]-6-methyl-morpholin-4-yl]quinoline-8-carbonitrile], for which the IC50 was below 3 nM.

For the compound `Cc1cc(N2CCN(C[C@H]3CN(c4ccc(C#N)c5ncccc45)C[C@@H](C)O3)[C@@H](C)C2)cc(CO)n1` [Example 4A], the IC50 amounted to 7 nM.

`Cc1cc(N2CCN(C[C@H]3CN(c4ccc(C#N)c5ncccc45)C[C@@H](C)O3)[C@H](C)C2)cc(CO)n1` [Example 4B]: the IC50 is 5 nM.

Consider `Cc1cc(NC2CCN(C[C@H]3CN(c4ccc(C#N)c5ncccc45)C[C@@H](C)O3)CC2)cc(CO)n1` [Example 5], for which the IC50 stood at 33 nM.

With `Cc1cc(NC2CCN(C[C@H]3CN(c4ccc(C#N)c5ncccc45)C[C@@H](C)O3)C2)cc(CO)n1` (some centres unmarked) [Example 6], the IC50 turned out to be 53 nM.

On to `Cc1cc(NC2CN(C[C@H]3CN(c4ccc(C#N)c5ncccc45)C[C@@H](C)O3)C2)cc(C)n1` [Example 7], for which the IC50 was 31 nM.

For the compound `Cc1cc(N2CCC23CN(C[C@H]2CN(c4ccc(C#N)c5ncccc45)C[C@@H](C)O2)C3)cc(C)n1` [Example 8], the IC50 was 7 nM.

With `Cc1cc(N2CCC3(CN(C[C@H]4CN(c5ccc(C#N)c6ncccc56)C[C@@H](C)O4)C3)C2)cc(C)n1` [Example 9], the IC50 was found to be 51 nM.

`Cc1cc(N2C[C@H]3CN(C[C@H]4CN(c5ccc(C#N)c6ncccc56)C[C@@H](C)O4)C[C@H]3C2)cc(CO)n1` [Example 10]: the IC50 stood at 22 nM.

For `Cc1cc(N(C)C2CN(C[C@H]3CN(c4ccc(C#N)c5ncccc45)C[C@@H](C)O3)C2)cc(C)n1` [Example 11], the IC50 worked out at 11 nM.

`Cc1cc(N2CCC23CN(C[C@H]2CN(c4ccc(C#N)c5ncccc45)C[C@@H](C)O2)C3)cc(CO)n1` [Example 12]: the IC50 was found to be 12 nM.

With `Cc1cc(N2CCOC3(CN(C[C@H]4CN(c5ccc(C#N)c6ncccc56)C[C@@H](C)O4)C3)C2)cc(C)n1` [Example 14], the IC50 is below 3 nM.

On to `Cc1cc(N2CCC23CN(C[C@H]2CN(c4ccc(C#N)c5ncccc45)C[C@@H](C)O2)C3)ccn1` [Example 15], for which the IC50 is 6 nM.

Regarding `Cc1cc(N2CCOC3(CN(C[C@H]4CN(c5ccc(C#N)c6ncccc56)C[C@@H](C)O4)C3)C2)ccn1` [Example 16], the IC50 was below 3 nM.

For `C[C@@H]1CN(c2ccc(C#N)c3ncccc23)C[C@H](CN2CCN(c3ccnc(N)c3)CC2)O1` [Example 19, 5-[(2S,6R)-2-[[4-(2-amino-4-pyridyl)piperazin-1-yl]methyl]-6-methyl-morpholin-4-yl]quinoline-8-carbonitrile], the IC50 is 3 nM.

With `C[C@@H]1CN(c2ccc(C#N)c3ncccc23)C[C@H](CNC2CCN(c3ccnc(N)c3)CC2)O1` [Example 20, 5-[(2S,6R)-2-[[[1-(2-amino-4-pyridyl)-4-piperidyl]amino]methyl]-6-methyl-morpholin-4-yl]quinoline-8-carbonitrile], the IC50 came out at 70 nM.

As for `C[C@@H]1CN(c2ccc(C#N)c3ncccc23)C[C@H](CN[C@@H]2CCCN(c3ccnc(N)c3)C2)O1` [Example 21, 5-[(2S,6R)-2-[[[(3R)-1-(2-amino-4-pyridyl)-3-piperidyl]amino]methyl]-6-methyl-morpholin-4-yl]quinoline-8-carbonitrile], the IC50 worked out at 15 nM.

In the case of `C[C@@H]1CN(c2ccc(C#N)c3ncccc23)C[C@H](CN[C@H]2CCCN(c3ccnc(N)c3)C2)O1` [Example 22], the IC50 was 38 nM.

`Cc1cc(N2CCC(NC[C@H]3CN(c4ccc(C#N)c5ncccc45)C[C@@H](C)O3)CC2)cc(CO)n1` [Example 23]: the IC50 was 41 nM.

For the compound `Cc1cc(N2CCC[C@@H](NC[C@H]3CN(c4ccc(C#N)c5ncccc45)C[C@@H](C)O3)C2)cc(CO)n1` [Example 24], the IC50 was 10 nM.

With `Cc1cc(N2CCC[C@H](NC[C@H]3CN(c4ccc(C#N)c5ncccc45)C[C@@H](C)O3)C2)cc(CO)n1` [Example 25], the IC50 came out at 14 nM.

For `Cc1cc(N2CC[C@@H](NC[C@H]3CN(c4ccc(C#N)c5ncccc45)C[C@@H](C)O3)C2)cc(CO)n1` [Example 28], the IC50 was 32 nM.

Regarding `Cc1cc(N2CC[C@H](NC[C@H]3CN(c4ccc(C#N)c5ncccc45)C[C@@H](C)O3)C2)cc(CO)n1` [Example 29], the IC50 was 25 nM.

For the compound `Cc1cc(N2CC(NC[C@H]3CN(c4ccc(C#N)c5ncccc45)C[C@@H](C)O3)C2)cc(CO)n1` [Example 30], the IC50 amounted to 14 nM.

Turning to `Cc1cc(N2CC[C@H](F)[C@H](NC[C@H]3CN(c4ccc(C#N)c5ncccc45)C[C@@H](C)O3)C2)cc(CO)n1` [Example 33], the IC50 came out at 7 nM.

In the case of `Cc1cc(N2CC[C@@H](F)[C@H](NC[C@H]3CN(c4ccc(C#N)c5ncccc45)C[C@@H](C)O3)C2)cc(CO)n1` [Example 34], the IC50 was determined as 4 nM.

On to `Cc1cc(N2CCC[C@@H](N(C)C[C@H]3CN(c4ccc(C#N)c5ncccc45)C[C@@H](C)O3)C2)cc(CO)n1` [Example 35], for which the IC50 is 9 nM.

On to `Cc1cc(N2CC(NC[C@H]3CN(c4ccc(C#N)c5ncccc45)C[C@@H](C)O3)CC(F)(F)C2)cc(CO)n1` (some centres unmarked) [Example 36], for which the IC50 was 12 nM.

As for `Cc1cc(N2CC(N(C)C[C@H]3CN(c4ccc(C#N)c5ncccc45)C[C@@H](C)O3)C2)cc(CO)n1` [Example 37], the IC50 was below 3 nM.

`Cc1cc(N2CCC[C@H](N(C)C[C@H]3CN(c4ccc(C#N)c5ncccc45)C[C@@H](C)O3)C2)cc(CO)n1` [Example 38]: the IC50 came out at 4 nM.

As for `Cc1cc(N2CCN(C[C@H]3CN(c4ccc(C#N)c5ncccc45)C[C@@H](C)O3)CC2)cc(N)n1` [Example 40, 5-[(2S,6R)-2-[[4-(2-amino-6-methyl-4-pyridyl)piperazin-1-yl]methyl]-6-methyl-morpholin-4-yl]quinoline-8-carbonitrile], the IC50 was below 3 nM.

For `CNc1cc(N2CCN(C[C@H]3CN(c4ccc(C#N)c5ncccc45)C[C@@H](C)O3)CC2)cc(C)n1` [Example 42, 5-[(2R,6S)-2-methyl-6-[[4-[2-methyl-6-(methylamino)-4-pyridyl]piperazin-1-yl]methyl]morpholin-4-yl]quinoline-8-carbonitrile], the IC50 is below 3 nM.
